Data published in patent publication EP0019589A1, “Tripeptide derivatives and their use in a process for determining enzymes” (Pentapharm A.G., priority 1979, dated 1980).
Non-standard residues stand in square brackets, D forms with d. Residues, ends and D or L forms follow the SMILES beside them. *: point of attachment. Cha = N[C@@H](CC1CCCCC1)C(=O)O; dChg = N[C@@H](C(=O)O)C1CCCCC1; pNA = O=[N+]([O-])c1ccc(N*)cc1; βNA = c1ccc2cc(N*)ccc2c1

Legend:
Type in all cases: biochemical
Urinkallikrein = molecular target: T1, Urinkallikrein (Homo sapiens, UniProt P06870); experiment: Cleavage of chromogenic substrate by urinary kallikrein in human urine; details: 1 ml human urine (pooled morning urine of healthy persons), per min; Substratkonzentration 2 x 10^-4 molar
T1 construct: 1 ml Urin und 1 ml TRIS-Imidazol-Puffer mit pH 7,9; from tissue; host or cells: human urine
Procedure: 1. Bestimmung von Urinkallikrein.
1 ml Urin und 1 ml TRIS-Imidazol-Puffer mit pH 7,9 und Ionenstärke 1,0 werden 5 Min. bei 37°C inkubiert undcänn zentrifugiert, um Sedimente zu entfernen.
In einer-Plastikküvette werden 1,4 ml dest. H20 von 37°C und 0,4 ml des Zentrifugats gut gemischt. Zu dieser Mischung gibt man 0,2 ml einer 2 x 10^-3 molaren wässrigen Substratlösung und durchmischt die Komponenten schnell. Dieses Gemisch wird genau 15 Min. bei 37°C inkubiert. Dann wird dem Reaktionsgemisch 0,2 ml Eisessig zugemischt, um die Enzymreaktion zu unterbrechen. Zur Farbmessung verwendet man eine Vergleichsprobe (Blindprobe), die aus den gleichen Komponenten zusammengesetzt ist, wobei jedoch der Eisessig vor Zugabe des Substrates zugesetzt wird, um die Enzymreaktion zu verhindern. Dann wird bei 405 nm photometrisch oder spektrophotometrisch die Menge der gebildeten farbigen Verbindung RNH 2 aus der Differenz zwischen der Blindprobe und der zu bestimmenden Probe ermittelt. Aus dem ermittelten Wert wird die Urinkallikreinaktivität im Urin nach der folgenden Formel berechnet: [formula] • Δ OD = Zunahme der optischen Dichte bei 405 nm während 15 Min. • V = Totalvolumen des Bestimmungsansatzes = 2,2 ml • 1000 = Umrechnungsfaktor zur Umwandlung von U in mU • F = Verdünnungsfaktor des Urins (2) • v = Volumen der Probe = 0,4 ml • ε = Extinktionskoeffizient dividiert durch 1000 = 10,4
Bei der oben beschriebenen Bestimmungsmethode misst man somit die Summe der Aktivitäten von Urinkallikrein und Urokinase. Um die genaue Urinkallikreinaktivität zu erhalten, muss man die Urokinaseaktivität abziehen, welche dadurch bestimmt werden kann, dass man in einem Vergleichsversuch durch Zugabe von 0,075 Einheiten Trypsininhibitor (Trypsininhibitor aus Rinderlunge) pro ml Puffer die Urinkallikreinaktivität vollständig hemmt und nur die Urokinaseaktivität misst.
(§1) Bei der Messung des durch die enzymatische Hydrolyse des Substrates gebildeten Spaltproduktes RrNH2 geht man von der Voraussetzung aus, dass das Spaltprodukt ein UV-Spektrum besitzt, das von demjenigen des Substrates verschieden und in Richtung höherer Wellenlängen verschoben ist. Die Absorption des Substrates bei 405 nm ist praktisch Null. p-Nitroanilin als Spaltprodukt weist ein Absorptionsmaximum bei 380 nm und einen molaren Extinktionskoeffizienten von 13'200 auf. Bei 405 nm ist der Extinktionskoeffizient nur wenig niedriger, d.h. […] Der Grad der enzymatischen Hydrolyse des Substrates, welcher der Menge des abgespaltenen p-Nitroanilins proportional ist, lässt sich durch spektrophotometrische Messung bei 405 nm bestimmen. Auch bei Anwesenheit eines Ueberschusses an Substrat wird die Messung bei 405 nm nicht gestört.
(§2) Bei den Substraten, die als chromogene Gruppe eine 2-Naphthylamino-, 4-Methoxy-2-naphthylamino-, 4-Methyl-cumaryl-(7)-amino- oder 1,3-Di(methoxycarbonyl)-phenyl-(5)-amino-Gruppe enthalten, wird die Menge des Spaltproduktes R-NH2 durch Fluoreszenzspektrophotometrie gemessen. In einem aus Enzym, Puffer und Substrat bestehenden Testsystem misst man kontinuierlich das energieärmere emittierte Licht bei 400-470 nm, nachdem man das gebildete fluoreszierende Spaltprodukt mit energiereicherem Licht erregt hat. Die pro Zeiteinheit gebildete Menge Spaltprodukt ist ein Mass für die vorhandene Enzymaktivität. 1 µMol Spaltprodukt pro Minute entspricht definitionsgemäss 1 Enzym-Einheit, bezogen auf ein gegebenes Substrat.

[1] = molecular target: T2, Submandibularis-Kallikrein (Homo sapiens, UniProt P06870); experiment: Cleavage of chromogenic substrate by submandibular (glandular) kallikrein in human sputum; details: 1 ml human sputum, per min; Substratkonzentration 2 x 10^-4 molar
T2 construct: Man mischt 0,5 ml Sputum mit 2 ml TRIS-Imidazol-Puffer; from tissue; host or cells: human sputum
Procedure: 2. Bestimmung des Glandulärkallikreins im Sputum: • Man mischt 0,5 ml Sputum mit 2 ml TRIS-Imidazol-Puffer (Ionenstärke 1,0) und präinkubiert die Mischung 5 Min. bei 37°C. Das Inkubat wird zentrifugiert. In eine Testküvette wird 1,5 ml dest. H2O von 37°C vorgelegt und mit 0,25 ml des Zentrifugats versetzt. Die Komponenten werden gut gemischt. Dann wird 0,2 ml 2 x 10-^3 molare wässrige Substratlösung zugesetzt und gemischt. Dann wird bei 405 nm die Extinktions- änderung kontinuierlich mittels eines Schreibers während 5-10 Min. verfolgt. Aus dem ermittelten Δ OD pro Min. wird mittels der nachstehenden Formel die Kallikreinaktivität pro ml Sputum in mU errechnet: [formula] • F = 5 • V = 1,95 • v = 0,25 • 1 U (Einheit) = Enzymmenge, die während 1 Min. 1 µMol Substrat unter optimalen oder sonst festgelegten Bedingungen in Bezug auf pH, Ionenstärke, Temperatur und Substratkonzentration zu spalten vermag
as §1, with “gestört. […]” for “gestört.”

Humanplasmin = molecular target: T3, Humanplasmin (Homo sapiens, UniProt P00747); experiment: Cleavage of chromogenic substrate by human plasmin; details: 1 CU-Einheit human plasmin, per min; Substratkonzentration 2 x 10^-4 molar
T3 construct: da bei der Aktivierung aus 1 Molekül Plasminogen 1 Molekül Plasmin entsteht
Procedure: 3. Bestimmung von Plasmin:
Man mischt 1,7 ml TRIS-Imidazol-Puffer (pH 7,5, Ionenstärke 0,2) bei 37°C mit 0,1 ml einer Lösung von Plasmin in 25%igem Glycerin und inkubiert die Mischung während 1 Min. bei 37°C. Dann gibt man der Mischung 0,2 ml einer wässrigen 2 x 10^-3 molaren Substxatlösung von 37°C zu und durchmischt das Ganze schnell. Man ermittelt dann kontinuierlich die pro Zeiteinheit aus dem Substrat freigesetzte Menge des Spaltproduktes R-NH2. Aus dem pro Min. ermittelten Wert berechnet man dann die Plasminaktivität pro ml Probe in mU nach der folgenden Formel: [formula] • ΔE = pro Min. freigesetzte Menge des Spaltproduktes • V = Totalvolumen des Testansatzes • v = Volumen der Probe • = Extinktionskoeffizient dividiert durch 1000
as §1, §2

Humanthrombin = molecular target: T4, Humanthrombin (Homo sapiens, UniProt P00734); experiment: Cleavage of chromogenic substrate by human NIH thrombin; details: 1 NIH-Einheit human thrombin, per min; Substratkonzentration 2 x 10^-4 molar
T4 construct: Humanplasmin und hu-manem NIH-Thrombin
Source text: as §1, §2

T1 sequence (P06870 25-262): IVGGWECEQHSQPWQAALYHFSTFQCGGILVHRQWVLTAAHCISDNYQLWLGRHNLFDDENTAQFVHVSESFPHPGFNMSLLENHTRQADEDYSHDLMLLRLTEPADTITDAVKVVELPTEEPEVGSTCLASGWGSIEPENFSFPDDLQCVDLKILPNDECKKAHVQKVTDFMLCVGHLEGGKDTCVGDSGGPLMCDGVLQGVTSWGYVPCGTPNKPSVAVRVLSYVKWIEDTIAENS
T2 sequence (P06870 25-262): as above
T3 sequence (P00747 581-810 limits assumed): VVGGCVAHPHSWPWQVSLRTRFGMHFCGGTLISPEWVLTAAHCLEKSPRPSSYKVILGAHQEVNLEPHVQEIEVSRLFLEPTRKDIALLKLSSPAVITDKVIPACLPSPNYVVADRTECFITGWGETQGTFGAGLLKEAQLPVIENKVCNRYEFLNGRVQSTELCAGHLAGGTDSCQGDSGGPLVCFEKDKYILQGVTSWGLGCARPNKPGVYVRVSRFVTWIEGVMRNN
T3 sequence (P00747 97-580 partner limits assumed): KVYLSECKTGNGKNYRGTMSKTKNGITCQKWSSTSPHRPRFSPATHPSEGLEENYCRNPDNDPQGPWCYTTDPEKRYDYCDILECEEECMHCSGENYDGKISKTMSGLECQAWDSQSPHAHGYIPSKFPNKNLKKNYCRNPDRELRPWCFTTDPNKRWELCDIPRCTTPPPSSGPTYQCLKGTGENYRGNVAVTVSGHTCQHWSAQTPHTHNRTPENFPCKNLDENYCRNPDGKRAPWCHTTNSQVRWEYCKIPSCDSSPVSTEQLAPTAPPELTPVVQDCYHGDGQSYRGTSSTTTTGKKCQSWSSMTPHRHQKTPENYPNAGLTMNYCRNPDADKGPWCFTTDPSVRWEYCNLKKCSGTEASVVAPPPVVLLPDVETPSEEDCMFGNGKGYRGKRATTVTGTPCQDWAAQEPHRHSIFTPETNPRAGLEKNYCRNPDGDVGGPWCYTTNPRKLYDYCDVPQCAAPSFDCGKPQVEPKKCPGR

Row | Molecule | Menge des durch 1 ml Humanurin pro Min. freigesetzten Spaltproduktes R-NH2 in Nanomol (Urinkallikrein) (Urinkallikrein) | Menge des durch 1 ml Humansputum pro Min. freigesetzten Spaltproduktes R-NH2 in Nanomol (Submandibularis-Kallikrein) [1] | Menge des durch 1 CU-Einheit Humanplasmin pro Min. freigesetzten Spaltproduktes R-NH2 in Nanomol (Humanplasmin) (Humanplasmin) | Menge des durch 1 NIH-Einheit Thrombin pro Min. freigesetzten Spaltproduktes R-NH2 in Nanomol (Humanthrombin) (Humanthrombin)
1 | 2HBr.H-D-CHT-Phe-Arg-pNA [Beispiel 17] | 0,77 Nanomol | 7,4 Nanomol | 860 Nanomol | 18,7 Nanomol
2 | 2HBr.H-D-CHT-Pro-Arg-pNA [Beispiel 23] | 1,20 Nanomol | 21,4 Nanomol | 690 Nanomol | 45,8 Nanomol
3 | 2HBr.H-D-CHT-Tyr-Arg-pNA [Beispiel 45] | 0,59 Nanomol | 10,9 Nanomol | 1252 Nanomol | 9,5 Nanomol
4 | N=C(N)NCCC[C@H](NC(=O)[C@H](CC1CCCCC1)NC(=O)[C@H](N)C1CCCCC1)C(=O)Nc1ccc([N+](=O)[O-])cc1 [Beispiel 1, H-D-CHG-CHA-Arg-pNA.2HBr] (H-[dChg]-[Cha]-Arg-pNA) | 0,84 Nanomol | 12,9 Nanomol | 699 Nanomol | 8,27 Nanomol
5 | NCCCC[C@H](NC(=O)[C@H](Cc1ccccc1)NC(=O)[C@H](N)C1CCCCC1)C(=O)Nc1ccc2ccccc2c1 [Beispiel 8, 2HBr.H-D-CHG-Phe-Lys-2-NA] (H-[dChg]-Phe-Lys-βNA) | 0,58 Nanomol | 17,6 Nanomol | 1180 Nanomol | –
6 | COc1cc(NC(=O)[C@H](CCCNC(=N)N)NC(=O)[C@H](CC2CCCCC2)NC(=O)[C@H](N)C(C)C)cc2ccccc12 [Beispiel 9, 2HBr.H-D-Val-CHA-Arg-4-MeO-2-NA] | 2,38 Nanomol | 25,4 Nanomol | 388 Nanomol | –
7 | COc1cc(NC(=O)[C@H](CCCCN)NC(=O)[C@H](Cc2ccccc2)NC(=O)[C@H](N)C2CCCCC2)cc2ccccc12 [Beispiel 10, 2HBr.H-D-CHG-Phe-Lys-4-MeO-2-NA] | 0,61 Nanomol | 14,9 Nanomol | 1165 Nanomol | –
8 | CC(C)C[C@H](NC(=O)[C@H](N)C1CCCCC1)C(=O)N[C@@H](CCCNC(=N)N)C(=O)Nc1ccc([N+](=O)[O-])cc1 [Beispiel 11, 2HBr.H-D-CHG-Leu-Arg-pNA] (H-[dChg]-Leu-Arg-pNA) | 0,60 Nanomol | 11,6 Nanomol | 381 Nanomol | 33,9 Nanomol
9 | CC(C)[C@@H](N)C(=O)N[C@@H](CC1CCCCC1)C(=O)N[C@@H](CCCNC(=N)N)C(=O)Nc1ccc([N+](=O)[O-])cc1 [Beispiel 12, 2HBr.H-D-Val-CHA-Arg-pNA] (H-[dV]-[Cha]-Arg-pNA) | 2,75 Nanomol | 30,5 Nanomol | 421 Nanomol | 4,0 Nanomol
10 | CC[C@@H](C)[C@@H](N)C(=O)N[C@@H](CC1CCCCC1)C(=O)N[C@@H](CCCNC(=N)N)C(=O)Nc1ccc([N+](=O)[O-])cc1 [Beispiel 13, 2HBr.H-D-Ile-CHA-Arg-pNA] (H-[dI]-[Cha]-Arg-pNA) | 2,67 Nanomol | 36,6 Nanomol | 446 Nanomol | 7,44 Nanomol
11 | CC(C)[C@@H](N)C(=O)N[C@@H](CC1CCCCC1)C(=O)N[C@@H](CCCCN)C(=O)Nc1ccc([N+](=O)[O-])cc1 [Beispiel 14, 2HBr.H-D-Val-CHA-Lys-pNA] (H-[dV]-[Cha]-Lys-pNA) | 1,02 Nanomol | 6,7 Nanomol | 505 Nanomol | 0,35 Nanomol
